From US20260166000A1, “1,8-CINEOLE CONTAINING COMPOSITION FOR THERAPEUTIC USE” (Maria Clementine Martin Klosterfrau Vertriebsgesellschaft …, priority 2020, published 2026)
Entries after “also recorded” stand apart in the source; their conditions may differ.

How the values were obtained:
[1] = tested on: Chronic polyposis otitis media without cholesteatoma; assay: Clinical use in chronic polyposis otitis media without cholesteatoma; assay type: in vivo, human
Method: (§1) In addition, the effect of 1,8-cineole is further investigated on the basis of the following areas of application, with 200 mg of 1,8-cineole being administered 3 times a day for the period indicated in each case (Soledum® forte): • 1. Chronic polypous sinusitis • 2. Chronic recurrent catarrhal sinusitis • 3. Chronic polyposis otitis media without cholesteatoma • 4. Chronic polyposis otitis media with cholesteatoma • Ad 1.

[2] = tested on: Chronic polypous sinusitis; assay: Clinical use in chronic polypous sinusitis; assay type: in vivo, human
Method: as §1

[3] = tested on: intestinal microbiome; assay: Microbiome sequencing of stool samples, principal coordinates analysis (PCoA); assay type: in vivo, human; conditions: patients with polyposis nasi; before vs after 2-week ingestion, 200 mg 3 times a day (Soledum forte)
Method: (§2) As part of the studies, the stool samples of patients with polyposis nasi are analyzed under the influence of 1,8-cineole. For this purpose, a stool sample is first taken before starting the administration of 1,8-cineole and then again after 2 weeks of taking 1,8-cineole 3 times a day (Soledum® forte, content of 1,8-cineole: 200 mg).
(§3) Stool Stabilizer (company: Stratec Molecular) is added to the stool samples and initially stored at a temperature of −20° C. until further processing. Subsequent DNA extraction is performed using the PSP Spin Stool DNA Plus kit according to the manufacturer's instructions (Stratec Molecular). Finally, the isolated DNA is used for microbiome sequencing (TG MiSeq Reagent Kit v3 & NEBNext® Library Quant Kit for Illumina) and analyzed.
The results are illustrated in FIG. 1 in the form of principal coordinate analysis (PCoA) of the examined stool samples of the patients (1 to 5) with polyposis nasi before (without labeling, unfilled circle symbols) and after 2-week ingestion of 1,8-cineole (marked with “*”, filled circle symbols).

[4] = tested on: patients with polyposis nasi; assay: Patient perception and clinical therapy of polyposis nasi; assay type: in vivo, human
Method: In addition to the molecular biological investigations, the individual perception and quality of life of the patients with regard to the 2-week intake of 1,8-cineole is also surveyed. […] In 38 patients (23 men/15 women between 28 and 72 years, average age 54 years) each with polyposis nasi a therapy with 1,8-cineole was performed (3 times 200 mg 1,8-cineole in the form of capsules “Soledum® forte”).

[5] = tested on: Chronic polyposis otitis media with cholesteatoma; assay: Clinical use in chronic polyposis otitis media with cholesteatoma; assay type: in vivo, human
Method: as §1

[6] = tested on: Patients with persistent bronchial asthma; assay: Clinical use in persistent bronchial asthma as add-on therapy; assay type: in vivo, human
[7] = tested on: cellular complexes of circulating platelets (CD41) with leukocytes; assay: Flow cytometry of cellular complexes of circulating platelets with leukocytes in blood; assay type: in vivo, human; conditions: for cellular complexes, neutrophils (Neutros), after / cellular complexes, lymphocytes (Lymphos), after / cellular complexes, eosinophils (Eosinos), after / cellular complexes, monocytes (Monos), after: blood of patients with polyposis nasi, after 2-week administration
Excerpt: Further, these cellular complexes will be specified in more detail by flow cytometer with respect to different leukocyte populations and with respect to the influence of 1,8-cineole.

[8] = cited from earlier work
[9] = tested on: Chronic recurrent catarrhal sinusitis; assay: Clinical use in chronic recurrent catarrhal sinusitis; assay type: in vivo, human
Method: as §1

[10] = tested on: monocytes circulating in the blood; assay: Flow cytometry of monocyte subtypes (CD14/CD16) in blood; assay type: in vivo, human
Method: The monocytes circulating in the blood can be divided into the three different subtypes, namely “classical”, “intermediate” and “non-classical”, on the basis of their surface proteins CD14 and CD16 by flow cytometry. In flow cytometry, cells are analyzed for cell size, granularity and fluorescent labeling of specific epitopes by passing specific lasers. This allows different cell populations to be differentiated and characterized. […] These observations are now comprehensively analyzed in additional patients individually by flow cytometer, especially under the influence of 1,8-cineole. […] In this regard, reference can also be made to FIG. 5A/B.

[11] = tested on: bacterial genus Prevotella; assay: Microbiome sequencing of stool samples, bacterial genera; assay type: in vivo, human; conditions: patients with polyposis nasi; after 2-week ingestion, 200 mg 3 times a day
Method: as §2, §3
(§4) Following this initial evaluation regarding existing alterations or changes in the intestinal microbiome of patients with polyposis nasi after 2-week ingestion of 1,8-cineole, a detailed evaluation of the microbiome sequencing performed will be performed regarding the bacterial genera identified.

[12] = tested on: Lachnospiraceae, Bifidobacterium or Faecalibacterium; assay: as above; assay type: in vivo, human; conditions: patients with polyposis nasi; after 2-week therapy, 200 mg 3 times a day
Method: as §2, §3, §4

[13] = tested on: bacteria of the family Ruminococcacea or the genus Ruminococcus; assay: as above; assay type: in vivo, human; conditions: patients with polyposis nasi; after 2-week ingestion, 200 mg 3 times a day
Method: as §2, §3, §4

[14] = tested on: genus Bacteroides; assay: as above; assay type: in vivo, human; conditions: patients with polyposis nasi; after 2-week therapy, 200 mg 3 times a day
Method: as §2, §3, §4

[15] = 2-week administration, preoperatively, previously refractory otorrhea (local and systemic antibiotics)
[16] = after tympanoplasty, renewed otorrhea with recurrent perforation, 4-week administration
[17] = 200 mg 3 times a day, 2-week administration, preoperatively
[18] = 38 patients with polyposis nasi, 3 times 200 mg, Soledum forte capsules
[19] = one case, small polyps on the olfactory groove, after 2 weeks
[20] = 2-week administration, preoperatively
[21] = after tympanoplasty, renewed otorrhea with recurrent perforation, 4 weeks of administration
[22] = twelve weeks of continuous therapy

SMILES: CC12CCC(CC1)C(C)(C)O2 [1,8-cineole, 1,3,3-trimethyl-2-oxabicyclo[2.2.2]octane]
- otorrhea [1, 15]: decrease in otorrhea, allowing surgery
- otorrhea [1, 16]: decrease in otorrhea
- tympanic membrane [1, 16]: spontaneous tympanic membrane closure
- accompanying symptoms of the polyps (anterior and posterior watery rhinorrhea) [2, 17]: reduction of the accompanying symptoms
- olfactory performance ([2]; 200 mg 3 times a day, 2-week administration, preoperatively, individual cases): In individual cases also improvement
- wound healing ([2]; postoperative): positive influence
- recurrences and systemic cortisone administration ([2]; postoperative, in combination with a nasal steroid): reduction of recurrences and systemic cortisone administration
- shift of beta diversity (PCoA) of stool samples [3]: clear shift
- nasal breathing [4, 18]: correspondingly improved
- secretion drainage [4, 18]: significantly improved
- nasal polyps [4, 19]: significant decrease
- olfactory sensation [4, 19]: marked improvement
- patients' response (individual perception and quality of life) ([4]; polyposis patients consulted, 2-week intake): predominantly positive
- cholesteatom masses [5, 20]: no reduction
- inflamed mucosa of middle ear and mastoid [5, 20]: positive effect
- concomitant otorrhea [5, 15]: decrease in concomitant otorrhea, allowing surgery
- otorrhea [5, 21]: decrease of otorrhea
- tympanic membrane [5, 21]: spontaneous tympanic membrane closure
- tolerability ([6]; 4 times 200 mg/die perorally): well tolerated without side effects
- lung function ([6]; 4 times 200 mg/die perorally, one week, with inhaled glucocorticoid, long-acting beta-2-sympathomimetic and theophylline): slight to moderate improvement
- reduction of inhaled glucocorticoid requirements ([6]; 4 times 200 mg/die perorally, twelve weeks of continuous therapy): more than 50%
- glucocorticoid use in some of the patients treated [6, 22]: temporarily discontinued altogether
- need for betamimetics in some patients [6, 22]: significantly reduced
- cellular complexes, neutrophils (Neutros), after ([7]; Table 2 (data n2), before 5.37%): 5.09%
- cellular complexes, lymphocytes (Lymphos), after ([7]; Table 2 (data n2), before 5.4%): 5.12%
- cellular complexes, eosinophils (Eosinos), after ([7]; Table 2 (data n2), before 10.7%): 4.8%
- cellular complexes, monocytes (Monos), after ([7]; Table 2 (data n2), before 16.8%): 6.28%
- cellular complexes, eosinophils (Eosinos), after ([7]; data n1, before 7.3%): 5.92%
- cellular complexes, lymphocytes (Lymphos), after ([7]; data n1, before 12.4%): 5.54%
- cellular complexes, neutrophils (Neutros), after ([7]; data n1, before 13.9%): 5.02%
- cellular complexes, monocytes (Monos), after ([7]; data n1, before 14.7%): 8.79%
- monocyte complexes in blood ([7]; patients with polyposis nasi, after taking over a period of two weeks): massive reduction
- solubility in water [8]: insoluble
- concomitant symptoms of polyps (anterior and posterior watery rhinorrhea) [9, 17]: decrease in concomitant symptoms
- olfactory performance [9, 17]: significant improvement
- use of nasal steroids ([9]; postoperative): reduction of nasal steroids
- wound healing ([9]; postoperative): positive influence
- monocyte distribution, additional patients analysed individually ([10]; additional patients, 2-week therapy (FIG. 5A/B)): restoration of the monocyte distribution
- CD16 "classical" monocytes (CD16 neg.) ([10]; after 2-week therapy (FIG. 5A)): significant increase
- "intermediate" monocytes (CD16 pos.) ([10]; after 2-week therapy (FIG. 5B)): clear decrease
- distribution of monocyte subpopulations ([10]; patients with polyposis nasi, after 2-week intake, compared with healthy donors (FIG. 4)): marked normalization or reversion
- presence of Prevotella in the intestine [11]: significantly reduced; also recorded: almost complete disappearance
- occurrence of Lachnospiraceae, Bifidobacterium or Faecalibacterium [12]: certain changes or shifts with a tendency to increase
- bacteria of the family Ruminococcacea or genus Ruminococcus [13]: significant increase
- occurrence of Bacteroides in the intestinal microbiome [14]: significantly more abundant
